Entries after “also recorded” stand apart in the source; their conditions may differ. Bridge positions count the residues as written; N and C are the ends. Peptide text beside a SMILES is read from it.
Assays:
[1] = system: assay rats anesthetized with sodium pentobarbital; assay: I.V. bolus injection into anesthetized bioassay rats: cardiovascular and renal responses; format: in vivo, rat; conditions: 3 nmol bolus injection
Description: Experiments were performed using male Sprague-Dawley rats, ranging in weight from 270-362 g. The rats were anesthetized by an intraperitional injection of sodium pentobarbital (70 mg.kg-1; MTC Pharmaceuticals, Hamilton, Ont.). Additional small amounts of anesthetic were administered as required in the course of the experiment. Body temperature was maintained by a heating lamp and rectal temperature monitored by a rectal probe. After installing a tracheal cannula, a femoral vein was cannulated and a priming infusion of saline (0.9% NaCl) was administered over a 20 min period (1.1 ml); this was followed by a maintenance saline infusion of 1.2 ml.h-1. The femoral artery was then cannulated for blood pressure measurement (Statham pressure transducer, model P23Db). A catheter was also advanced via the right external jugular vein towards the right heart for bolus injections of vehicle, ANF or the atrial peptide of the present invention (AHP). After tying off the penis, the bladder was cannulated for urine collection. […] The EKG was recorded for determination of heart rate.
Urine was collected in preweighed vials and volume calculated by weighing. […]
Zero time was established by 40-60 mins from the beginning the priming saline infusion. […] Cardiovascular measurements were analyzed at 5 min intervals during control and at 1, 5, 10, 15 and 20 mins following administration of injectate. […]

[2] = system: antiserum to iso-rANP(1-20) (P2A); assay: Double immunodiffusion / cross reactivity of antiserum raised against P2A; format: binding, rabbit

For `CC[C@H](C)[C@@H]1NC(=O)[C@H](CCCNC(=N)N)NC(=O)[C@H](CC(=O)O)NC(=O)[C@H]([C@@H](C)CC)NC(=O)[C@H](CCCCN)NC(=O)[C@H](CCC(N)=O)NC(=O)CNC(=O)[C@H](Cc2ccccc2)NC(=O)[C@@H](N)CSSC[C@@H](C(=O)O)NC(=O)CNC(=O)[C@H](CC(C)C)NC(=O)[C@H](CCCNC(=N)N)NC(=O)[C@H](CO)NC(=O)[C@H](C(C)C)NC(=O)[C@H](C)NC(=O)CNC1=O` [Iso-rANP(23-39)] (H-CFGQKIDRIGAVSRLGC-OH; disulfide 1-17), the “diuretic, natriuretic, hypotensive and bradycardic response of ring peptides (FIG. 5)” value [1] was “significant diuretic, natriuretic, hypotensive and bradycardin response”.

In the case of “rANP(23-39): ring portion of rANP [reference compound]”, the “diuretic, natriuretic, hypotensive and bradycardic response of ring peptides (FIG. 5)” value [1] is reported as “substantially biologically inactive”.

B1: pro-ANP: precursor of ANP, tested for cross reactivity with the antiserum (protein, UniProt P01161 25-152, looked up)
pro-form: NPVYSAVSNTDLMDFKNLLDHLEEKMPVEDEVMPPQALSEQTDEAGAALSSLSEVPPWTGEVNPSQRDGGALGRGPWDPSDRSALLKSKLRALLAGPRSLRRSSCFGGRIDRIGAQSGLGCNSFRYRR
modifications: pro-form
For B1, the “reaction with antiserum against P2A (precipitin lines / cross reactivity)” value [2] was “No cross reactivity; also recorded: did not cross-react”.

Reference: patent publication US5057495A, “Atrial hypotensive peptide” (Queen's University at Kingston, priority 1988, dated 1991)
